Data reported in paper PMC10892409, “Exploring Ocimum basilicum’s Secondary Metabolites: Inhibition and Molecular Docking against Rhynchophorus ferrugineus for Optimal Action” (Plants, 2024).
Values after ≈ are worked out from the molar mass of the structure shown. Values joined by “and” are separate entries in the source; they are usually repeats but may differ in a detail not shown here. Equal entries are not always repeated.

Legend:
AChE [1] = test: In vitro AChE inhibition, larval homogenate (Ellman); format: biochemical, Rhynchophorus ferrugineus; details: fourth-instar larvae preparation
Experimental: (§1) The R. ferrugineus were homogenized larvae in a buffer (sodium phosphate, 40 mM, and pH 7.4); then, sodium chloride (10 mM dissolved in 1% (w/v) triton X-100) was added. During centrifugation (Sigma 3–30 KS), the homogenate was chilled to 4 °C and spun at a speed of 5000 rpm (20 min). The supernatant was either immediately put into action for an enzymatic test or frozen and kept at […] for later use. Each test was repeated three times. The protein content was determined using the same protocol employed by Lowry with modification using protein extract (100 µL) combined with an alkaline copper solution and a Folin–Ciocalteu phenol reagent (2 mL and 200 µL, respectively). The intensity of the resulting blue hue was evaluated during 30 min of incubation at 25 °C. Using an ELISA plate reader and a BSA standard curve, we could calculate the protein concentration by analyzing the absorbance at 600 nm (Multiskan SkyHigh Microplate Spectrophotometer, Thermo Fisher Scientific, Waltham, MA, USA).
(§2) The enzyme AChE was assessed using a substrate of acetylthiocholine iodide and evaluated using 5,5′-dithiobis [2-nitrbenzoic acid] (DTNB), according to [94]. Each well contained a sodium phosphate buffer (140 µL) (pH: 8.0; 100 mM), DTNB (10 µL), extract (20 µL)/components at 1, 10, 50, 100, and 1000 µg/mL in DMSO and underwent 15 min of incubation at 25 °C. Acetylthiocholine (ATCh) was added to start the reaction (10 µL). The ATCh enzymatic hydrolysis produced a 5-thio-2-nitrobenzoate anion as a color (yellow) that was detected by measuring its wavelength, i.e., 412 nm, thereby allowing the researchers to track the rate of ATCh hydrolysis (15 min). Each response was performed three times on a microplate and examined using an ELISA plate reader to determine the 412 nm absorbance of the combination (Multiskan SkyHigh Microplate Spectrophotometer). The AChE-specific activity was measured as OD412/mg protein.h. based on observing the effect of raising the quantities of all of these compounds during the tests on the inhibition results, and the inhibitory concentration (IC50) was calculated. Then, a computer algorithm was used to determine the IC50 values (Version 9.01 of GraphPad Prism by Inc., 2020, San Diego, CA, USA).

R. ferrugineus adults = test: Antifeedant/insecticidal test on adults with treated sugarcane stem (probit LC50); format: in vivo, Rhynchophorus ferrugineus; details: Rhynchophorus ferrugineus, 24 h, after 1 day of treatment, 95% confidence limits in brackets, read-out: LC50
Experimental: (§3) Over the course of 40 days, an O. basilicum cell suspension was cultivated in this investigation, and then the extract was obtained. […] Long segments of sugarcane stem were employed in the insect breeding lab at King Faisal University’s Research and Training Center to raise adult R. ferrugineus larvae. For this experiment, we used a topical application technique with larvae stored at 4 °C for five minutes to test the extract’s activity. Using a hand-operated micro-applicator (Burkard Manufacturing Co., Ltd., Hertfordshire, UK, collected using a […] micro-syringe), extracts at escalating ratios (10 µL) were injected into the dorsal surface of the larvae (Ito Corp.; MS-N50, Shizuoka, Japan). Five larvae per box in a series of three replicates were fed on sugarcane stem pieces measuring 10 cm in length. The LD50 was calculated by measuring the percentage of dead larvae at 24, 48, 72, and 96 h following a topical application. The antifeedant impact was determined in adults by giving them 10 cm sugarcane stem segments cut in half longitudinally. Long strips of sugarcane stem (32 cm^2) were immersed in the previous serial extract and compound concentration (10 mL) for ten seconds before they were dried in ambient air using a plastic box. Each box included a new pair of larvae (a male and a female). Ten sets of each treatment were performed. Data on how well the subjects ate were evaluated at 24, 48, 72, and 96 h.
(§4) The tissue culture parameters were calculated quantitatively from three independent sets of samples, and the mean SD was used to describe the findings. Toxicity parameters were determined quantitatively using a 10-replicate sample, and means and standard deviations were used to present the data. The median dosage obtained from a dose–response regression was used to calculate the LC50 value. By analyzing the comparative growth rate vs. the crude extract logarithm using least squares regression, the range of LC50 was calculated with 95% confidence. A simple variance study was performed on the increased weight and enzymatic activity data (ANOVA). The distinction between the means was accomplished using the Student–Newman–Keuls (SNK) test. Additionally, SPSS version 25 was used to find p < 0.05 significant deviations from the mean.

AChE [2] = test: In vivo AChE inhibition in treated fourth-instar larvae; parameters: species or system Rhynchophorus ferrugineus; details: fourth-instar larvae treated 24 h
Experimental: as §2
(§5) Each enzyme’s in vivo impact was measured after treating larvae with an extract or pure chemicals. An inhibitor-free test combination served as a negative control. We determined the absorbance of the enzymes throughout a spectrum of wavelengths using a rapid reader for ELISA plates (Multiskan SkyHigh Microplate Spectrophotometer). Extracts and pure chemicals were used to treat R. ferrugineus larvae at previous serial concentrations, and their AChE, ACP, ALP, and GABA-T activity was tested in vivo using the methods outlined above. Larvae spent a day on leaf disks treated with chemicals or extract.

[3] = test system: fourth-instar larvae of R. ferrugineus; test: Topical application (contact) to fourth-instar larvae (probit LD50); format: in vivo, Rhynchophorus ferrugineus; details: after 1 day of treatment, 95% confidence limits in brackets
Experimental: as §3, §4

ALPs [4] = test: In vitro ALP inhibition, larval homogenate; format: biochemical, Rhynchophorus ferrugineus; details: for IC50 ALPs in vitro: fourth-instar larvae preparation
Experimental: as §1
(§6) Activities of ACPs and ALPs were evaluated using a modified version of the Asakura technique. The ACP test required incubating 100 μL of crude enzyme in a buffer of 650 μL of sodium acetate (pH: 5.0; 50 mM with ACPs) or 250 μL of Tris–HCl (at 50 mM; pH: 8.0 with ALPs) and p-nitrophenyl phosphate (5.5 mM). For 30 min; the various mixes were kept at 37 °C for incubation. Thereafter, 500 μL of NaOH (0.5 N) stopped the reaction. Using an ELISA plate reader, we determined the mixture’s 415 nm absorbance value (Multiskan SkyHigh Microplate Spectrophotometer). The ACP- and ALP-specific activity was estimated as OD 415/mg protein·h.

ACPs [5] = test: In vitro ACP inhibition, larval homogenate; format: biochemical, Rhynchophorus ferrugineus; details: fourth-instar larvae preparation
Experimental: as §1, §6

ALPs [6] = test: In vivo ALP inhibition in treated fourth-instar larvae; parameters: species or system Rhynchophorus ferrugineus; details: fourth-instar larvae treated 24 h
Experimental: as §6, §5

ACPs [7] = test: In vivo ACP inhibition in treated fourth-instar larvae; parameters: species or system Rhynchophorus ferrugineus; details: fourth-instar larvae treated 24 h
Experimental: as §6, §5

O=C(/C=C/c1ccc(O)c(O)c1)O[C@@H](C(=O)O)[C@@H](O)C(=O)O [Caftaric acid]
IC50 AChE in vitro (AChE [1]): 156 ± 1.49 µg/mL | IC50 AChE in vitro (AChE [1]; listed as caftaric acid): 156.4 µg/mL | LC50 (R. ferrugineus adults): 1490 µg/mL (≈ 4780 µM) | IC50 AChE in vivo (AChE [2]): 429 ± 1.49 µg/mL | IC50 AChE in vivo (AChE [2]; listed as caftaric acid): 429.2 µg/mL | LD50 [3]: 18.79 (17.82–19.93) µg/Larvae | LD50 ([3]; listed as caftaric acid): 18.79 µg/Larvae | IC50 ALP in vitro (ALPs [4]): 158 µg/mL (≈ 505 µM) | IC50 ALPs in vitro (ALPs [4]; listed as caftaric acid): < 200 µg/mL

O=C(O)C[C@H](C(=O)O)[C@@H](O)C(=O)O [Isocitric acid]
IC50 AChE in vitro (AChE [1]): 197.3 µg/mL and 197 ± 1.76 µg/mL | IC50 ACPs in vitro (ACPs [5]): 192.4 µg/mL (≈ 1000 µM) | IC50 ALPs in vivo (ALPs [6]; listed as isocitric acid): 448.3 µg/mL | LC50 (R. ferrugineus adults): 1800 µg/mL (≈ 9340 µM) | IC50 AChE in vivo (AChE [2]): 494 ± 1.76 µg/mL | IC50 AChE in vivo (AChE [2]; listed as isocitric acid): 494.2 µg/mL | LD50 [3]: 22.7 (21.4–23.8) µg/Larvae | LD50 ([3]; listed as isocitric acid): 22.7 µg/Larvae | IC50 ALP in vitro (ALPs [4]): 195 µg/mL (≈ 1010 µM) | IC50 ALPs in vitro (ALPs [4]): < 200 µg/mL | IC50 ACPs in vivo (ACPs [7]; listed as isocitric acid): 415.6 µg/mL

COc1ccc(-c2cc(=O)c3c(O)c(OC)c(OC)cc3o2)cc1 [Salvigenin]
IC50 AChE in vitro (AChE [1]): 130 ± 1.23 µg/mL | IC50 AChE in vitro (AChE [1]; listed as salvigenin): 129.7 µg/mL | IC50 ACPs in vitro (ACPs [5]; listed as salvigenin): 151.2 µg/mL (≈ 461 µM) | IC50 ALPs in vivo (ALPs [6]; listed as salvigenin): 228.7 µg/mL | LC50 (R. ferrugineus adults): 1140 µg/mL (≈ 3480 µM) | IC50 AChE in vivo (AChE [2]): 258 ± 1.23 µg/mL | IC50 AChE in vivo (AChE [2]; listed as salvigenin): 258.4 µg/mL | LD50 [3]: 10.8 (10.2–11.5) µg/Larvae | LD50 ([3]; listed as salvigenin): 10.8 µg/Larvae | IC50 ALP in vitro (ALPs [4]): 123 µg/mL (≈ 374 µM) | IC50 ALPs in vitro (ALPs [4]; listed as salvigenin): < 200 µg/mL | IC50 ACPs in vivo (ACPs [7]; listed as salvigenin): < 330 µg/mL and 294.2 µg/mL

O=C(C=Cc1ccc(O)c(O)c1)OC(Cc1ccc(O)c(O)c1)C(=O)OC1OC(CO)C(O)C(O)C1O (centres unmarked) [Rosmarinic acid glucoside]
IC50 AChE in vitro (AChE [1]): 89 ± 0.85 µg/mL | IC50 AChE in vitro (AChE [1]; listed as rosmarinyl glucoside): 89.4 µg/mL | IC50 ACPs in vitro (ACPs [5]; listed as rosmarinyl glucoside): 123.6 µg/mL (≈ 237 µM) | IC50 ALPs in vivo (ALPs [6]; listed as rosmarinyl glucoside): 387.4 µg/mL | LC50 (R. ferrugineus adults): 1230 µg/mL (≈ 2350 µM) | IC50 AChE in vivo (AChE [2]): 313 ± 0.85 µg/mL | IC50 AChE in vivo (AChE [2]; listed as rosmarinyl glucoside): 312.7 µg/mL | LD50 ([3]; listed as Rosmarinyl glucoside): 17.2 (15.7–18.1) µg/Larvae | LD50 ([3]; listed as rosmarinyl glucoside): 17.2 µg/Larvae | IC50 ALP in vitro (ALPs [4]): 120 µg/mL (≈ 229 µM) | IC50 ALPs in vitro (ALPs [4]; listed as rosmarinyl glucoside): < 200 µg/mL | IC50 ACPs in vivo (ACPs [7]; listed as rosmarinyl glucoside): 318.8 µg/mL
